Data as given in patent US10493046B2, “5-hydroxytryptamine 1B receptor-stimulating agent for use as a promoter of satellite cells self-renewal and/or differentiation” (INSTITUT PASTEUR, priority 2015, dated 2019).

How the values were obtained:
cytokines [1] = test: Plasmatic cytokine levels by Luminex in treated mice; design: species or system mouse; conditions: fluoxetine 6 weeks in vivo; vs placebo
Description: Snap frozen plasma samples (n=6 per condition) were thawed out, and supernatant was processed for Luminex® multiple cytokine and chemokine analysis (Bio-Plex® Pro™ Mouse Cytokine Standard 23-Plex, Group I and Standard 9-Plex, Group II). Normalization was done by sample weight of frozen muscle. […]

satellite cells [2] = test: BrdU cell division of satellite cells during treatment; format: in vivo, mouse; conditions: BrdU during the entire per os treatment
Description: (a) Schematic representation of fluoxetine delivery and sacrifice time points. (b) Number of satellite cells per mm^2 on section. […] The arrows point to the satellite cells. […] (k-l) Representative image of a vessel (arrows) in the Matrigel plug detected by HE staining in placebo (k) or fluoxetine (l) treated mice. (m) Vessel length 4 days post-plating of Cytodex® beads covered with HUVEC. (n) Representative image of a Cytodex® bead 4 days-post plating in presence of placebo plasma. […] Using immunostainings and FACS cell sorting in Figures (p) to (v): (p) Number of Pax7GFP expressing cells per digested TA (expressed as an absolute number) counted by FACS. (q) Representative FACS profile of digested TA of TgPax7nGFP mouse. […] TA muscle was digested and cells were isolated by FACS, spined on a slide and immuno-stained against BrdU. (s) Percentage of BrdU+ cells in Tg:Pax7nGFP mice (n=3 per time point). […] Data are represented as mean±s.d. *P<0.05; **P<0.01; ***P<0.001. Scale bar represents 100 μm. For Figures (p) to (v): n=7 mice used per condition, except for BrdU experiments n=3 per time point. Data are represented as mean±s.d. **P<0.01. Scale bar represents 100 μm.

cytokines [3] = test: Plasmatic cytokine levels by Luminex after notexin injury; format: in vivo, mouse; conditions: injured with fluoxetine treatment
Description: (§1) Snap frozen plasma samples (n=6 per condition) were thawed out, and supernatant was processed for Luminex® multiple cytokine and chemokine analysis (Bio-Plex® Pro™ Mouse Cytokine Standard 23-Plex, Group I and Standard 9-Plex, Group II). Normalization was done by sample weight of frozen muscle.

[4] = test system: serotonin receptors subtypes; test: RT-qPCR of serotonin receptor subtypes in FACS-sorted muscle cells after treatment; format: in vivo, mouse; conditions: 6 weeks P.O fluoxetine; FACS-sorted endothelial cells
Protocol: Total RNA was isolated from cells using the RNAeasy Micro kit (Qiagen). The total RNA was reverse-transcribed using Superscript® III Reverse transcriptase (Invitrogen). Real-time quantitative PCR was performed using Power Sybr Green PCR Master Mix (Applied Biosystems) and the rate of dye incorporation was monitored using the StepOne™ Plus RealTime PCR system (Applied Biosystems). At least three biological replicates were used for each condition. Data were analyzed by StepOne Plus RT PCR software v2.1 and Microsoft excel. GAPDH transcript levels were used for normalisation of each target (=ΔCT). Real-time PCR CT values were analyzed using the 2-(ΔΔCt) method to calculate the fold expression (ΔΔCTmethod, Livak et al., 2001).
RT-qPCR was then performed on serotonin receptors subtypes to further characterize by which the endothelial cells could be activated (FIG. 5b). […] The same observation was made in FACS cell-sorted SC from Tg:Pax7nGFP mice (FIG. 5b).

cytokines [5] = test: Plasmatic cytokine levels by Luminex in Mdx mice; format: in vivo, mouse; conditions: fluoxetine P.O. 6 weeks
Description: as §1

satellite cells [6] = test: FACS-sorted satellite cells in vitro, compound added to the culture medium; format: cell-based, mouse
Protocol: Muscle dissection was done as previously described in cold DMEM. Muscles were then chopped with small scissors and put in a 50 ml Falcon tube with collagenase 0.1% and trypsin 0.25% at 37° C. with gentle agitation. After 20 minutes, the supernatant was collected in 20% serum placed on ice, and the collagenase/trypsin solution was added to continue the digestion. Once muscle was completely digested, the solution was filtrated using 40 μm cell strainers. Satellite cells were cultured in 1:1 DMEM-Glutamax (Gibco#41965-039):MCDB201 (Sigma#M6770) containing 20% serum FBS (Biowest S1860). Medium was filtered using 0.22 μm filters. Cells were plated on Matrigel coating (BD Biosciences#354234) and kept in an incubator (37° C., 5% CO2). […] The thus-obtained supernatant replaced FBS in the culture medium; the rest of the medium was unchanged.
Satellite cells were isolated from Tg:Pax7nGFP mice and cells were plated at 2.000 cells per cm^2. After overnight, vortioxetine was added at 10 μM. […] 14 days post-plating, a higher number of reserve cells (Pax7 positive cells that are quiescent in vitro) were detected in the vortioxetine-treated cells (9%±0.7) than in the PBS (3.5%±0.9, p=0.01), and when GR127935 inhibitor was added in vitro the number of reserve cells dropped (3.5%±0.9, p=0.9) (FIG. 11c). […] This difference in expression was lost when SC were plated with the GR127935 5-HT1 BR inhibitor (p=0.4) (FIGS. 11c-e). The positive effects of vortioxetine were lost when GR127935 was added in vitro together with vortioxetine (FIGS. 11c-e). These effects were however persistent when adding the 5-HT2 BR antagonist (FIGS. 11c-e). This means that the positive effects observed when plating vortioxetine in vitro with satellite cells is mediated via the 5HT1B receptor and not 5HT2B.
To test whether, 2 derivatives of vortioxetine, namely histidine-vortioxetine and pyrrolidinium-vortioxetine, could have similar or improved effect compared to the unmodified vortioxetine, the in vitro approach as described in section 2.2.3 above was used and the differentiation cascade of satellite cells was investigated by assessing the expression pattern of Pax7 (a marker of stemness and quiescence) and Myogenin (MyoG, a marker of differentiation) as described above in section 2.2.3. To do so, satellite cells from Tg:Pax7-nGFP were isolated by FACS and plated at 2.000 cells per cm^2 (seeded overnight). The following day, the vortioxetine, its derivatives, or the control PBS was added at 10 μM and the cells were fixed at the indicated time points.

vessels = test: Vessel number in tibialis anterior of treated mice (Flk1GFP/+ or CD31 immunostaining); format: in vivo, mouse; conditions: GR127935 in osmotic pump together with vortioxetine I.P 12 days

Compound	Levels of IL-1a, IL-1b, IL-2 and eotaxin (cytokines [1])	Levels of IL-4 and IL-13 (cytokines [1])	SC population dividing (BrdU) (satellite cells [2]) [%]	IL-6 level after injury (cytokines [3]) [pg/µL]	Expression of other subtypes (5-HT1 AR, 5-HT1 DR, 5-HT1 FR, 5-HT2 AR, 5-HT2 CR) [4]	Level of IL6 (cytokines [5]) [pg/mL]	Level of IL10 (cytokines [5]) [pg/mL]	Positive effects of vortioxetine (incl. MyoG expression difference) when GR127935 added (satellite cells [6]; GR127935 added in vitro together with vortioxetine 10 μM)	Pax7 positive cells 4 days post-plating (satellite cells [6]; vortioxetine 10 μM incubated with the GR127935 inhibitor) [%]	Reserve cells (quiescent Pax7 positive cells) 14 days post-plating (satellite cells [6]; vortioxetine 10 μM, GR127935 inhibitor added in vitro) [%]	Number of vessels (vessels) [vessels per mm^2]
CNCCC(Oc1ccc(C(F)(F)F)cc1)c1ccccc1 (centres unmarked) [fluoxetine]	downregulated	upregulated	90	2459 ± 920	non-statistically significant increase	34.52 ± 21	99.6 ± 56				
COc1ccc(NC(=O)c2ccc(-c3ccc(-c4noc(C)n4)cc3C)cc2)cc1N1CCN(C)CC1 [GR127935]								lost	25.5	3.5	928±207
